From ChEMBL document CHEMBL1139690, “Comparison between two classes of selective EP(3) antagonists and their biological activities” (Bioorg Med Chem Lett, 2006)
pKi: −log10 of the molar value.

Target: Prostaglandin E2 receptor EP2 subtype (Homo sapiens, UniProt P43116)
Experiment: Binding affinity to EP2 receptor

Chain of Prostaglandin E2 receptor EP2 subtype (P43116 whole entry): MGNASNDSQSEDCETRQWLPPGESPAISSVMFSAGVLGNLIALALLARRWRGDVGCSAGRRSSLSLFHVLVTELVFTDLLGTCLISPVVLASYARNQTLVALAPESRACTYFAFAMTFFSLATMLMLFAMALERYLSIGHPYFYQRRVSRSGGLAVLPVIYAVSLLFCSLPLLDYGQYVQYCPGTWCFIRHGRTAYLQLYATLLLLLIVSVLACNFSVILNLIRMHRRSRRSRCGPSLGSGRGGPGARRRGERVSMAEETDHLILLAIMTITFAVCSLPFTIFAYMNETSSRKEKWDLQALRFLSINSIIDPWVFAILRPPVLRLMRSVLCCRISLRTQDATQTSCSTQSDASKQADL

Ki | SMILES
8.7 µM (antagonist) | COc1cc(/C=C/Cc2ccccc2/C=C/C(=O)NS(=O)(=O)c2cccs2)ccc1OCc1ccccc1
8 µM (antagonist) | O=C(/C=C/c1ccccc1C/C=C/c1ccccc1)NS(=O)(=O)c1cccs1
2.1 µM (antagonist) | Cc1ccc(OCc2ccccc2)c(/C=C/Cc2ccccc2/C=C/C(=O)NS(=O)(=O)c2cccs2)c1
2.1 µM (antagonist) | Cc1ccc(OCc2ccccc2)c(C/C=C/c2ccccc2/C=C/C(=O)NS(=O)(=O)c2cccs2)c1
6.5 µM (antagonist) | COc1ccc(C/C=C/c2ccccc2/C=C/C(=O)NS(=O)(=O)c2cccs2)cc1
2.5 µM (antagonist) | COc1ccc(/C=C/Cc2ccccc2/C=C/C(=O)O)cc1
0.75 µM (antagonist) | COc1cc(/C=C/Cc2ccccc2/C=C/C(=O)O)ccc1OCc1ccccc1
1.4 µM (antagonist) | O=C(O)/C=C/c1ccccc1C/C=C/c1ccccc1
8.7 µM (antagonist) | COc1cc(C/C=C/c2ccccc2/C=C/C(=O)NS(=O)(=O)c2cccs2)ccc1OCc1ccccc1
1.6 µM (antagonist) | Cc1ccc(OCc2ccccc2)c(CCCc2ccccc2CCC(=O)NS(=O)(=O)c2cccs2)c1

Target: T1, Prostaglandin E2 receptor EP1 subtype (Homo sapiens, UniProt P34995)
T1 sequence (P34995 whole entry): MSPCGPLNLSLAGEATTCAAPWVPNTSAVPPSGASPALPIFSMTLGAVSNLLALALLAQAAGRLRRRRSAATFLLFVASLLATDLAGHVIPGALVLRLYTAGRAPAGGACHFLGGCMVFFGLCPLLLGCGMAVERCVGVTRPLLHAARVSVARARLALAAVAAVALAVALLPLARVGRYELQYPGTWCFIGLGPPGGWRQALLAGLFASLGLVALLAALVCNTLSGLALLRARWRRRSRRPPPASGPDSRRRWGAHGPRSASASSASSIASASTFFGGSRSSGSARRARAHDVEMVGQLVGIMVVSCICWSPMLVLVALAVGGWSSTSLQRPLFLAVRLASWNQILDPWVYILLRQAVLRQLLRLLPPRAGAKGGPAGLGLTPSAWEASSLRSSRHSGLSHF
Experiment: Binding affinity to EP1 receptor

Ki | pKi | SMILES
1.5 µM (antagonist) | – | COc1cc(/C=C/Cc2ccccc2/C=C/C(=O)NS(=O)(=O)c2cccs2)ccc1OCc1ccccc1
8.5 µM (antagonist) | – | O=C(/C=C/c1ccccc1C/C=C/c1ccccc1)NS(=O)(=O)c1cccs1
2.3 µM (antagonist) | – | Cc1ccc(OCc2ccccc2)c(/C=C/Cc2ccccc2/C=C/C(=O)NS(=O)(=O)c2cccs2)c1
2.3 µM (antagonist) | – | Cc1ccc(OCc2ccccc2)c(C/C=C/c2ccccc2/C=C/C(=O)NS(=O)(=O)c2cccs2)c1
2.6 µM (antagonist) | – | COc1ccc(C/C=C/c2ccccc2/C=C/C(=O)NS(=O)(=O)c2cccs2)cc1
– | < 4.00 | COc1ccc(/C=C/Cc2ccccc2/C=C/C(=O)O)cc1
– | < 4.70 | COc1cc(/C=C/Cc2ccccc2/C=C/C(=O)O)ccc1OCc1ccccc1
– | < 4.00 | O=C(O)/C=C/c1ccccc1C/C=C/c1ccccc1
1.5 µM (antagonist) | – | COc1cc(C/C=C/c2ccccc2/C=C/C(=O)NS(=O)(=O)c2cccs2)ccc1OCc1ccccc1
6.7 µM (antagonist) | – | Cc1ccc(OCc2ccccc2)c(CCCc2ccccc2CCC(=O)NS(=O)(=O)c2cccs2)c1

Target: T2, Prostaglandin E2 receptor EP3 subtype (Homo sapiens, UniProt P43115)
T2 sequence (P43115 whole entry): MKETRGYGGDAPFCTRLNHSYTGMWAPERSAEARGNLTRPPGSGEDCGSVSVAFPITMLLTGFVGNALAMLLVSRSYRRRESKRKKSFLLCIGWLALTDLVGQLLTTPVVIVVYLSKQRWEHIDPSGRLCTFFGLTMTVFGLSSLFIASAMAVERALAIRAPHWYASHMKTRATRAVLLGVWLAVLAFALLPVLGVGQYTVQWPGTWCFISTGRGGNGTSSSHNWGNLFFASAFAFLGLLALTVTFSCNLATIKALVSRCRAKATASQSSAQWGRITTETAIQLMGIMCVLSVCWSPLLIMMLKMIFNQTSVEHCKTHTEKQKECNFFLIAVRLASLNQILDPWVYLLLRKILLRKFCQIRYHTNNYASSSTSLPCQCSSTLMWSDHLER
Experiment: Binding affinity to EP3 receptor

Ki | SMILES
1.6 nM (antagonist) | COc1cc(/C=C/Cc2ccccc2/C=C/C(=O)NS(=O)(=O)c2cccs2)ccc1OCc1ccccc1
5 nM (antagonist) | O=C(/C=C/c1ccccc1C/C=C/c1ccccc1)NS(=O)(=O)c1cccs1
10 nM (antagonist) | Cc1ccc(OCc2ccccc2)c(/C=C/Cc2ccccc2/C=C/C(=O)NS(=O)(=O)c2cccs2)c1
10 nM (antagonist) | Cc1ccc(OCc2ccccc2)c(C/C=C/c2ccccc2/C=C/C(=O)NS(=O)(=O)c2cccs2)c1
2.4 nM (antagonist) | COc1ccc(C/C=C/c2ccccc2/C=C/C(=O)NS(=O)(=O)c2cccs2)cc1
68 nM (antagonist) | COc1ccc(/C=C/Cc2ccccc2/C=C/C(=O)O)cc1
8 nM (antagonist) | COc1cc(/C=C/Cc2ccccc2/C=C/C(=O)O)ccc1OCc1ccccc1
100 nM (antagonist) | O=C(O)/C=C/c1ccccc1C/C=C/c1ccccc1
1.6 nM (antagonist) | COc1cc(C/C=C/c2ccccc2/C=C/C(=O)NS(=O)(=O)c2cccs2)ccc1OCc1ccccc1
56 nM (antagonist) | Cc1ccc(OCc2ccccc2)c(CCCc2ccccc2CCC(=O)NS(=O)(=O)c2cccs2)c1

Target: Prostaglandin E2 receptor EP4 subtype (Homo sapiens, UniProt P35408)
Sequence (P35408 whole entry): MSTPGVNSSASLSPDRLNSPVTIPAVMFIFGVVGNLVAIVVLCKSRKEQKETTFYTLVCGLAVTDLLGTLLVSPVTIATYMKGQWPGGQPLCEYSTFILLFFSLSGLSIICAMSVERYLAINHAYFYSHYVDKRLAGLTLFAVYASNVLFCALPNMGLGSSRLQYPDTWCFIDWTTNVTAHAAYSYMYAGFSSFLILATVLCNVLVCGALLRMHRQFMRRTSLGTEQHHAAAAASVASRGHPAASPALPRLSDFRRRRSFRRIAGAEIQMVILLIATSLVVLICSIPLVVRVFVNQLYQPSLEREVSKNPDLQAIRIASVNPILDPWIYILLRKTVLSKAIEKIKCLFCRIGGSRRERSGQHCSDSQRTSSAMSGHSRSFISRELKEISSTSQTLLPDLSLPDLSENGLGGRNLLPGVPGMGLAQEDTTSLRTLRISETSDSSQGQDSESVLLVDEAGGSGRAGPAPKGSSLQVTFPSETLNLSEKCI
Experiment: Binding affinity to EP4 receptor

Ki | SMILES
840 nM (antagonist) | COc1cc(/C=C/Cc2ccccc2/C=C/C(=O)NS(=O)(=O)c2cccs2)ccc1OCc1ccccc1
1500 nM (antagonist) | O=C(/C=C/c1ccccc1C/C=C/c1ccccc1)NS(=O)(=O)c1cccs1
960 nM (antagonist) | Cc1ccc(OCc2ccccc2)c(/C=C/Cc2ccccc2/C=C/C(=O)NS(=O)(=O)c2cccs2)c1
960 nM (antagonist) | Cc1ccc(OCc2ccccc2)c(C/C=C/c2ccccc2/C=C/C(=O)NS(=O)(=O)c2cccs2)c1
1000 nM (antagonist) | COc1ccc(C/C=C/c2ccccc2/C=C/C(=O)NS(=O)(=O)c2cccs2)cc1
6200 nM (antagonist) | COc1ccc(/C=C/Cc2ccccc2/C=C/C(=O)O)cc1
610 nM (antagonist) | COc1cc(/C=C/Cc2ccccc2/C=C/C(=O)O)ccc1OCc1ccccc1
4400 nM (antagonist) | O=C(O)/C=C/c1ccccc1C/C=C/c1ccccc1
840 nM (antagonist) | COc1cc(C/C=C/c2ccccc2/C=C/C(=O)NS(=O)(=O)c2cccs2)ccc1OCc1ccccc1
1000 nM (antagonist) | Cc1ccc(OCc2ccccc2)c(CCCc2ccccc2CCC(=O)NS(=O)(=O)c2cccs2)c1
